{"source": "patent US8114886B2", "about": "“Pyridylmethylsulfone derivative” (Daiichi Sankyo Company, Limited, priority 2005, dated 2012)"}
{"tested_on": "β-amyloid protein (Aβ) secreted by E35 cells (H4 cells with APP751 gene)", "test": "Screening system using E35 cells for inhibition of production/secretion of β-amyloid protein (sandwich ELISA of Aβ in culture medium)", "format": "cell-based, human", "settings": "Homo sapiens, 24 hours with compound, Aβ in culture supernatant by ELISA, read-out: Inhibitory Activity for Production of A(EC50)", "procedure": "The activity of the compound inhibiting β-amyloid protein production was measured on E35 cells prepared by introducing APP751 gene, a gene of a human wild type β-amyloid protein precursor protein, to human glioma cells (H4 cells), by quantifying the amount of β-amyloid protein (Aβ) secreted to the culture medium by means of a sandwich type Enzyme-Linked Immunosorbent Assay (ELISA) method.\nThat is, E35 cells inoculated on a 96-well plate were cultured in an incubator at 37° C. which was maintained at equilibrium with 5% carbon dioxide, using Dulbecco's Modified Eagle's Medium containing inactivated 10% fetal bovine serum as the culture medium. After 24 hours from the inoculation, a test compound dissolved in a DMSO solution was added. The DMSO solution of the test compound was prepared at a concentration of 2000 times of the final concentration, such that the DMSO concentration in the culture medium would be 0.05%. After culturing for another 24 hours, the culture supernatant was recovered, and this was added to a 96-well plate for ELISA onto which a monoclonal antibody against Aβ, 25-1, was solid-phased. The plate was incubated at 4° C. for 16 to 20 hours. The plate was washed with phosphate buffer solution (pH 7.4), and then a biotinylated monoclonal antibody against Aβ, MA32-40, was added thereto. The plate was left to stand at 4° C. for 2 hours. The plate was washed again with phosphate buffer solution, and then alkaline phosphatase-conjugated streptavidin was added to conjugate streptavidin to biotin. Subsequently, the plate was washed with phosphate buffer solution. To this, Blue Phos (Kirkegaard & Perry Laboratories, Inc.) was added. After incubating the plate for an appropriate time, the reaction was terminated with an acid, and the absorbance for each well was measured. The amount of Aβ contained in the culture supernatant was determined from a calibration curve which was produced separately, and the amount was compared with that of control cells to which the compound was not added. Thus, the concentration at which 50% of the Aβ production is inhibited (EC50 value) was calculated. In addition, the 25-1 antibody and MA32-40 antibody used in ELISA were mouse monoclonal antibodies derived from the hybridoma cell clone lines, which were each produced and selected according to a standard method using Aβ25-35 and Aβ1-8 as antigens, respectively, and which specifically recognize their respective antigens. […]\nThe scores indicate ++++ for the case where EC50 was 5 nM or less; +++ for the case where EC50 was 5 to 50 nM; ++ for the case where EC50 was 50 to 500 nM; and + for the case where EC50 was 500 nM to 5 μM.", "units": {"EC50": "nM"}}
{"smiles": "COC(=O)NCCNC(=O)c1cc(C)c(C(c2cc(F)ccc2F)S(=O)(=O)c2ccc(F)cc2)cn1", "note": "(centres unmarked) [Example 84, Methyl[2-[[[5-[(2,5-difluorophenyl)[(4-fluorophenyl)sulfonyl]methyl]-4-methylpyridin-2-yl]carbonyl]amino]ethyl]carbamate]", "EC50": "≤ 5"}
{"smiles": "Cc1cc(C(N)=O)ncc1C(c1cc(F)ccc1F)S(=O)(=O)c1ccc(Cl)cc1", "note": "(centres unmarked) [Example 9, 5-[[(4-Chlorophenyl)sulfonyl](2,5-difluorophenyl)methyl]-4-methylpyridine-2-carboxamide]", "EC50": "≤ 5"}
{"smiles": "Cc1cc(C(=O)NCCO)ncc1C(c1cc(F)ccc1F)S(=O)(=O)c1ccc(C(F)(F)F)cn1", "note": "(centres unmarked) [Example 55, 5-[(2,5-Difluorophenyl)[[5-(trifluoromethyl)pyridin-2-yl]sulfonyl]methyl]-N-(2-hydroxyethyl)-4-methylpyridine-2-carboxamide]", "EC50": "50 to 500"}
{"smiles": "Cc1cc(C(N)=O)ncc1C(c1cc(F)ccc1F)[S+]([O-])c1ccc(F)cc1", "note": "(centres unmarked) [Example 24, 5-[(2,5-Difluorophenyl) [(4-fluorophenyl)sulfinyl]methyl]-4-methylpyridine-2-carboxamide]", "EC50": "5 to 50"}
{"smiles": "Cc1cc(C(=O)N(C)C)ncc1C(c1c(F)ccc(F)c1F)S(=O)(=O)c1ccc(F)cc1", "note": "(centres unmarked) [Example 36A, 5-[[(4-Fluorophenyl)sulfonyl](2,3,6-trifluorophenyl)methyl]-N,N,4-trimethylpyridine-2-carboxamide]", "EC50": "5 to 50"}
{"smiles": "CNC(=O)c1cc(C)c(C(c2cc(F)ccc2F)[S+]([O-])c2ccc(F)cc2)cn1", "note": "(centres unmarked) [Example 21, 5-[(2,5-Difluorophenyl)[(4-fluorophenyl)sulfinyl]methyl]-N,4-dimethylpyridine-2-carboxamide]", "EC50": "5 to 50"}
{"tested_on": "not given", "test": "not given", "settings": "not given"}
{"smiles": "COC(=O)NCCNC(=O)c1cc(C)c(C(c2cc(F)ccc2F)S(=O)(=O)c2ccc(F)cc2)cn1", "note": "(centres unmarked) [Example 84, Methyl[2-[[[5-[(2,5-difluorophenyl)[(4-fluorophenyl)sulfonyl]methyl]-4-methylpyridin-2-yl]carbonyl]amino]ethyl]carbamate]", "melting point": "167 to 169 °C"}
{"smiles": "Cc1cc(C(=O)NCS)ncc1C(c1cc(F)ccc1F)S(=O)(=O)c1ccc(F)cc1", "note": "(centres unmarked) [Example 132, 5-[(2,5-Difluorophenyl)[(4-fluorophenyl)sulfonyl]methyl]-N-(mercaptomethyl)-4-methylpyridine-2-carboxamide]", "melting point": "190 to 193 °C"}
{"smiles": "Cc1cc(C(=O)NCOCc2cccnc2)ncc1C(c1cc(F)ccc1F)S(=O)(=O)c1ccc(F)cc1", "note": "(centres unmarked) [Example 113, 5-[(2,5-Difluorophenyl) [(4-fluorophenyl)sulfonyl]methyl]-4-methyl-N-[(pyridin-3-ylmethoxy)methyl]pyridine-2-carboxamide]", "melting point": "121 to 123 °C"}
{"smiles": "Cc1cc(C(N)=O)ncc1C(c1cc(F)ccc1F)S(=O)(=O)c1ccc(Cl)cc1", "note": "(centres unmarked) [Example 9, 5-[[(4-Chlorophenyl)sulfonyl](2,5-difluorophenyl)methyl]-4-methylpyridine-2-carboxamide]", "melting point": "241 to 242 °C"}
{"smiles": "COc1ccc(S(=O)(=O)C(c2cnc(C(=O)O)cc2C)c2cc(F)ccc2F)cc1", "note": "(centres unmarked) [Example 42, 5-[(2,5-Difluorophenyl)[(4-methoxyphenyl)sulfonyl]methyl]-4-methylpyridine-2-carboxylic acid]", "melting point": "194 to 195 °C"}
{"smiles": "Cc1cc(C(=O)NCCO)ncc1C(c1cc(F)ccc1F)S(=O)(=O)c1cc(F)cc(F)c1", "note": "(centres unmarked) [Example 100, 5-[(2,5-Difluorophenyl)[(3,5-difluorophenyl)sulfonyl]methyl]-N-(2-hydroxyethyl)-4-methylpyridine-2-carboxamide]", "melting point": "82 to 84 °C"}
{"smiles": "Cc1cc(C(N)=O)ncc1C(c1c(F)ccc(F)c1F)S(=O)(=O)c1ccc2ccoc2c1", "note": "(centres unmarked) [Example 126, 5-[(1-Benzofuran-6-ylsulfonyl)(2,3,6-trifluorophenyl)methyl]-4-methylpyridine-2-carboxamide]", "melting point": "237 to 240 °C"}
{"smiles": "Cc1cc(C(=O)NCO)ncc1C(c1c(F)ccc(F)c1F)S(=O)(=O)c1ccc(C(F)(F)F)cc1", "note": "(centres unmarked) [Example 129, N-(hydroxymethyl)-4-methyl-5-[[[4-(trifluoromethyl)phenyl]sulfonyl](2,3,6-trifluorophenyl)methyl]pyridine-2-carboxamide]", "melting point": "190 to 192 °C"}
{"smiles": "Cc1cc(C(=O)NCO)ncc1C(c1c(F)ccc(F)c1F)S(=O)(=O)c1ccc2ccoc2c1", "note": "(centres unmarked) [Example 127, 5-[(1-Benzofuran-6-ylsulfonyl)(2,3,6-trifluorophenyl)methyl]-N-(hydroxymethyl)-4-methylpyridine-2-carboxamide]", "melting point": "185 to 186 °C (dec.)"}
{"smiles": "COc1ccc(S(=O)(=O)C(c2cnc(C(=O)O)cc2C)c2cc(F)ccc2F)cc1F", "note": "(centres unmarked) [Example 46, 5-[(2,5-Difluorophenyl)[(3-fluoro-4-methoxyphenyl)sulfonyl]methyl]-4-methylpyridine-2-carboxylic acid]", "melting point": "196 to 197 °C"}
{"smiles": "Cc1cc(C(=O)O)ncc1C(c1cc(F)ccc1F)S(=O)(=O)c1ccc(Cl)cc1", "note": "(centres unmarked) [Example 3, 5-[[(4-Chlorophenyl)sulfonyl](2,5-difluorophenyl)methyl]-4-methylpyridine-2-carboxylic acid]", "melting point": "208 to 209 °C"}
{"smiles": "Cc1cc(C(N)=O)ncc1C(c1c(F)ccc(F)c1F)S(=O)(=O)c1ccc(F)c(F)c1", "note": "(centres unmarked) [Example 121, 5-[[(3,4-Difluorophenyl)sulfonyl](2,3,6-trifluorophenyl)methyl]-4-methylpyridine-2-carboxamide]", "melting point": "200 to 201 °C"}
{"smiles": "CC(=O)OCNC(=O)c1cc(C)c(C(c2cc(F)ccc2F)S(=O)(=O)c2ccc(F)cc2)cn1", "note": "(centres unmarked) [Example 86, [[[5-[(2,5-Difluorophenyl)(4-fluorophenylsulfonyl)methyl]-4-methylpyridin-2-yl]carbonyl]amino]methyl acetate]", "melting point": "111 to 113 °C"}
{"smiles": "Cc1cc(C(=O)NCOC(=O)CO)ncc1C(c1cc(F)ccc1F)S(=O)(=O)c1ccc(F)cc1", "note": "(centres unmarked) [Example 109, [[[5-[(2,5-Difluorophenyl)[(4-fluorophenyl)sulfonyl]methyl]-4-methylpyridin-2-yl]carbonyl]amino]methyl hydroxyacetate]", "melting point": "84 °C"}
{"smiles": "Cc1cc(C(=O)N2CC(O)C2)ncc1C(c1cc(F)ccc1F)S(=O)(=O)c1ccc(F)cc1", "note": "(centres unmarked) [Example 88, 1-[[5-[(2,5-Difluorophenyl)[(4-fluorophenyl)sulfonyl]methyl]-4-methylpyridin-2-yl]carbonyl]azetidin-3-ol]", "melting point": "219 to 221 °C"}
{"smiles": "Cc1cc(C(=O)NCO)ncc1C(c1c(F)ccc(F)c1F)S(=O)(=O)c1ccc(F)c(F)c1", "note": "(centres unmarked) [Example 122, 5-[[(3,4-Difluorophenyl)sulfonyl](2,3,6-trifluorophenyl)methyl]-N-(hydroxymethyl)-4-methylpyridine-2-carboxamide]", "melting point": "119 to 120 °C"}
{"smiles": "Cc1cc(C(=O)NCOCCO)ncc1C(c1cc(F)ccc1F)S(=O)(=O)c1ccc(F)cc1", "note": "(centres unmarked) [Example 112, 5-[(2,5-Difluorophenyl)[(4-fluorophenyl)sulfonyl]methyl]-N-[(2-hydroxyethoxy)methyl]-4-methylpyridine-2-carboxamide]", "melting point": "175 to 177 °C"}
{"smiles": "CCOC(=O)c1cc(C)c(C(c2cc(F)ccc2F)S(=O)(=O)c2ccc(F)cc2)cn1", "note": "(centres unmarked) [Example 91, Diethyl 5-[(2,5-difluorophenyl)[(4-fluorophenyl)sulfonyl]methyl]-4-methylpyridine-2-carboxylic acid]", "melting point": "151 to 153 °C"}
{"smiles": "Cc1cc(C(=S)N(C)C)ncc1C(c1cc(F)ccc1F)S(=O)(=O)c1ccc(F)cc1", "note": "(centres unmarked) [Example 92, 5-[(2,5-Difluorophenyl)[(4-fluorophenyl)sulfonyl]methyl]-N,N,4-trimethylpyridine-2-carbothioamide]", "melting point": "161 to 164 °C"}
{"smiles": "Cc1cc(C(=O)N(C)CO)ncc1C(c1cc(F)ccc1F)S(=O)(=O)c1ccc(F)cc1", "note": "(centres unmarked) [Example 133, 5-[(2,5-Difluorophenyl)((4-fluorophenyl)sulfonyl)methyl]-N-(hydroxymethyl)-N,4-dimethylpyridine-2-carboxamide]", "melting point": "184 to 186 °C"}
{"smiles": "Cc1cc(C(=O)NCO)ncc1C(c1c(F)ccc(F)c1F)S(=O)(=O)c1ccc(C(F)F)nc1", "note": "(centres unmarked) [Example 136, 5-[[[6-(Difluoromethyl)pyridin-3-yl]sulfonyl](2,3,6-trifluorophenyl)methyl]-N-(1-hydroxymethyl)-4-methylpyridine-2-carboxamide]", "melting point": "181 to 183 °C"}
{"smiles": "CC(=O)NC(=O)c1cc(C)c(C(c2cc(F)ccc2F)S(=O)(=O)c2ccc(F)cc2)cn1", "note": "(centres unmarked) [Example 107, N-acetyl-5-[(2,5-difluorophenyl)[(4-fluorophenyl)sulfonyl]methyl]-4-methylpyridine-2-carboxamide]", "melting point": "182 to 183 °C"}
{"smiles": "Cc1cc(C(=O)NCCC(=O)O)ncc1C(c1cc(F)ccc1F)S(=O)(=O)c1ccc(F)cc1", "note": "(stereo not drawn) [Example 81, N-[[5-[(2,5-difluorophenyl)[(4-fluorophenyl)sulfonyl]methyl]-4-methylpyridin-2-yl]carbonyl]-β-alanine]", "melting point": "223 to 226 °C"}
